# Source: ChEMBL document CHEMBL1139124, “Oxazolidinones as novel human CCR8 antagonists” (Bioorg Med Chem Lett, 2007)
# Activity calls are given as the source filed them. No cut-off for these calls is given here.
# What was measured:
# [1] = molecular target: C-C chemokine receptor type 8 (Homo sapiens, UniProt P51685); experiment: Antagonist activity at human recombinant CCR8 expressed in RBL cells assessed as inhibition of I-309-induced intracellular calcium mobilization by FLIPR assay; assay type: functional, cell-based
# Sequence of C-C chemokine receptor type 8 (P51685 whole entry): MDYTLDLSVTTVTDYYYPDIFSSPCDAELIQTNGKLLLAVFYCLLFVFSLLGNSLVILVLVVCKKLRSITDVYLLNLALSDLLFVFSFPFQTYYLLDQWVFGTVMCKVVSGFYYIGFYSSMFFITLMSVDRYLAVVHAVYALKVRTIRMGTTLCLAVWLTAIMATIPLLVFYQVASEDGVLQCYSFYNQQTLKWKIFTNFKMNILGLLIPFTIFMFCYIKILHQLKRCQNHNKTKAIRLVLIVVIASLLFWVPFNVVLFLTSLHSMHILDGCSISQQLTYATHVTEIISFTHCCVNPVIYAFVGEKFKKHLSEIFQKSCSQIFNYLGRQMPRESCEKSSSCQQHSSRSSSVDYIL
# [2] = molecular target: Voltage-gated inwardly rectifying potassium channel KCNH2 (Homo sapiens, UniProt Q12809); experiment: Inhibition of hERG; assay type: toxicity
# Sequence of Voltage-gated inwardly rectifying potassium channel KCNH2 (Q12809 whole entry): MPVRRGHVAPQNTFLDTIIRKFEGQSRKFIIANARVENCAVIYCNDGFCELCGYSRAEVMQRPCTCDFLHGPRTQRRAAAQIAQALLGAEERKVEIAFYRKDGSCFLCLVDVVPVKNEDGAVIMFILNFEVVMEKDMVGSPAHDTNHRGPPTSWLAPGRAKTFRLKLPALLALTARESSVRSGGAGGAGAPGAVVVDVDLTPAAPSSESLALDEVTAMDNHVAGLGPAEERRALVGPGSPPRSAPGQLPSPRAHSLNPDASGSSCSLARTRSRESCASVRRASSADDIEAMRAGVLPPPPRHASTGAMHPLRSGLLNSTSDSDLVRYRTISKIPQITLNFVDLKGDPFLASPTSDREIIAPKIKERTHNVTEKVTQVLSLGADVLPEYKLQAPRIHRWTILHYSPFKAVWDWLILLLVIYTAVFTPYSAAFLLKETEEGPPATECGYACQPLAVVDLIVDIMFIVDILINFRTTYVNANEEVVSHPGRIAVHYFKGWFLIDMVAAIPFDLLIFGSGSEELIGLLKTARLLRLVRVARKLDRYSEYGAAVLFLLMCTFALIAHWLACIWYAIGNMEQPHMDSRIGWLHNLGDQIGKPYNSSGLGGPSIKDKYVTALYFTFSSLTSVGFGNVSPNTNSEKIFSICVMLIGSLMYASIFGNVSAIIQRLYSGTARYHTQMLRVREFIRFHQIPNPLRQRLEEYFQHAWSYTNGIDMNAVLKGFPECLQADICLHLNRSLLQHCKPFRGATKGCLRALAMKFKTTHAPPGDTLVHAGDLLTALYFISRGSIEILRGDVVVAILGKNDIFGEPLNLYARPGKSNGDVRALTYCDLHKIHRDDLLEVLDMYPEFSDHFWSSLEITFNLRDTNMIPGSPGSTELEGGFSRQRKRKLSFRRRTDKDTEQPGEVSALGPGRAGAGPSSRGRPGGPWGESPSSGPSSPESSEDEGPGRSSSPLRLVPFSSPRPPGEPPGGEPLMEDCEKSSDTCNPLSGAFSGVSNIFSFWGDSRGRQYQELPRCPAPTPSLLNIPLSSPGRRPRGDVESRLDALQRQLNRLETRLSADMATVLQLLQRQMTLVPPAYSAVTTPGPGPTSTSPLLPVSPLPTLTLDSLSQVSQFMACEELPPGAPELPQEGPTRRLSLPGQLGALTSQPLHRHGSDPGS
# Cavia porcellus = species on record: Cavia porcellus; experiment: Antagonist activity at guinea pig CCR8 by FLIPR assay; assay type: functional
# [3] = Half life in mouse at 1 mg/kg, iv or 2 mg/kg, po; assay type: ADME, organism-based; settings: in vivo
# Homo sapiens = species on record: Homo sapiens; experiment: Selectivity for hERG over CCR8
# [4] = molecular target: T1, C-C chemokine receptor type 8 (Mus musculus) (UniProt P56484); experiment: Antagonist activity at mouse CCR8 by FLIPR assay; assay type: functional
# T1 sequence (whole entry): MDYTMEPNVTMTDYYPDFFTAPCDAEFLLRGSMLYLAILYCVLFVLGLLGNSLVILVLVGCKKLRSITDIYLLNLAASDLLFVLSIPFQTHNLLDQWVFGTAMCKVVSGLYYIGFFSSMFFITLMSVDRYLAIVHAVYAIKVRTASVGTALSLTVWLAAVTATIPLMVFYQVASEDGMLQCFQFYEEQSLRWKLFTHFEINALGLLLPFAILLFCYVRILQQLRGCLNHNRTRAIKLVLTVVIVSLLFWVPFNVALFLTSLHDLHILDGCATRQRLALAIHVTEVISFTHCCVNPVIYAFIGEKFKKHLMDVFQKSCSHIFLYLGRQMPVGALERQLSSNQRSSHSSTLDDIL
# Rattus norvegicus = species on record: Rattus norvegicus; experiment: Antagonist activity at rat CCR8 by FLIPR assay; assay type: functional
# Liver microsomes [5] = experiment: Intrinsic clearance in human liver microsome; assay type: ADME
# [6] = Clearance in mouse blood at 1 mg/kg, iv or 2 mg/kg, po; assay type: ADME, organism-based
# Liver microsomes [7] = experiment: Intrinsic clearance in rat liver microsome; assay type: ADME
# [8] = Volume of distribution at steady state in mouse at 1 mg/kg, iv or 2 mg/kg, po; assay type: ADME, organism-based; settings: in vivo, read-out: Vdss
# [9] = Oral bioavailability in mouse at 2 mg/kg; assay type: ADME, organism-based; settings: in vivo
SMILES,IC50 [1] [nM],further results
COc1ccc2nccc(C3CN(CC4CCN(Cc5cc6ccccc6[nH]5)CC4)C(=O)O3)c2c1 (centres undefined),> 50100,–
O=C1OC(c2ccc3ccccc3n2)CN1C1CCN(Cc2cc3ccccc3[nH]2)CC1 (centres undefined),> 50100,–
O=C1OC(c2cnc3ccccc3c2)CN1C1CCN(Cc2cc3ccccc3[nH]2)CC1 (centres undefined),> 50100,–
COc1ccc2nccc(C3CN(C4CCN(C)CC4)C(=O)O3)c2c1 (centres undefined),> 50100,–
COc1ccc2nccc(C3CN(CC4CCCN(Cc5cc6ccccc6[nH]5)C4)C(=O)O3)c2c1 (centres undefined),> 50100,–
O=C1OC(c2cccc3ccccc23)CN1C1CCN(Cc2cc3ccccc3[nH]2)CC1 (centres undefined),> 50100,–
COc1ccc2nccc(C3CN(C4CCN(Cc5ccccc5)CC4)C(=O)O3)c2c1 (centres undefined),12600,–
COc1ccc2nccc(C3CN(C4CCN(S(=O)(=O)c5ccc(Cl)c(Cl)c5)CC4)C(=O)O3)c2c1 (centres undefined),> 50100,–
COc1ccc2nccc(C3CN(C4CCN(CC5CCCCC5)CC4)C(=O)O3)c2c1 (centres undefined),7940,–
COc1ccc2nccc(C3CN(C4CCN(Cc5ccc(C#N)cc5)CC4)C(=O)O3)c2c1 (centres undefined),12600,–
COc1ccc2nccc(C3CN(C4CCN(Cc5ccc(-c6ccccc6)cc5)CC4)C(=O)O3)c2c1 (centres undefined),> 50100,–
COc1ccc2nccc(C3CN(C4CCN(Cc5cc6ccccc6[nH]5)C4)C(=O)O3)c2c1 (centres undefined),> 50100,–
COc1ccc2nccc(C3CN(C4CCCCN(Cc5cc6ccccc6[nH]5)C4)C(=O)O3)c2c1 (centres undefined),> 50100,–
O=C1OC(c2ccncc2)CN1C1CCN(Cc2cc3ccccc3[nH]2)CC1 (centres undefined),> 50100,–
COc1ccc2nccc(C3CN(C4CCN(Cc5ccccc5Cl)CC4)C(=O)O3)c2c1 (centres undefined),> 50100,–
COc1ccc2nccc(C3CN(C4CCN(Cc5c[nH]c6ccccc56)CC4)C(=O)O3)c2c1 (centres undefined),> 50100,–

# Compounds with a lower IC50 [1], results first:
IC50 [1] [nM],SMILES,further results
6310,COc1ccc2nccc(C3CN(C4CCN(C(=O)c5ccc(Cl)c(Cl)c5)CC4)C(=O)O3)c2c1 (centres undefined),–
6310,COc1ccc2nccc(C3CN(CCCN(C)Cc4cc5ccccc5[nH]4)C(=O)O3)c2c1 (centres undefined),–
6310,COc1ccc2nccc(C3CN(C4CCN(Cc5cccc(Cl)c5)CC4)C(=O)O3)c2c1 (centres undefined),–
3160,COc1ccc2nccc(C3CN(C4CCN(Cc5cc6ccccc6n5C)CC4)C(=O)O3)c2c1 (centres undefined),–
3160,COc1ccc2nccc(C3CN(C4CCN(Cc5ccc6ccccc6n5)CC4)C(=O)O3)c2c1 (centres undefined),–
1580,COc1ccc2nccc(C3CN(CCCNCc4cc5ccccc5[nH]4)C(=O)O3)c2c1 (centres undefined),–
1260,COc1ccc(CN2CCC(N3CC(c4ccnc5ccc(OC)cc45)OC3=O)CC2)cc1 (centres undefined),–
1260,COc1ccc2nccc(C3CN(C4CCN(Cc5cc6ccccc6o5)CC4)C(=O)O3)c2c1 (centres undefined),–
1260,COc1ccc2nccc(C3CN(C4CCN(Cc5ccc6ccccc6c5)CC4)C(=O)O3)c2c1 (centres undefined),–
1000,O=C1OC(c2ccnc3ccccc23)CN1C1CCN(Cc2cc3ccccc3[nH]2)CC1 (centres undefined),–
794,COc1ccc2nccc(C3CN(C4CCN(Cc5cc6ccccc6s5)CC4)C(=O)O3)c2c1 (centres undefined),–
631,COc1ccc2nccc(C3CN(C4CCN(Cc5ccc(Cl)cc5)CC4)C(=O)O3)c2c1 (centres undefined),–
501,CCCCCCN1CCC(N2CC(c3ccnc4ccc(OC)cc34)OC2=O)CC1 (centres undefined),–
251,COc1ccc2nccc(C3CN(C4CCN(CCCc5ccccc5)CC4)C(=O)O3)c2c1 (centres undefined),–
126,COc1ccc2nccc(C3CN(C4CCN(Cc5ccc(Cl)c(Cl)c5)CC4)C(=O)O3)c2c1 (centres undefined),–
50.1,COc1ccc2nccc(C3CN(C4CCN(Cc5ccc(Br)cc5)CC4)C(=O)O3)c2c1 (centres undefined),–
39.8,COc1ccc2nccc(C3CN(C4CCN(Cc5ccc(C)c(C)c5)CC4)C(=O)O3)c2c1 (centres undefined),IC50 [2]: 6310 nM; Selectivity ratio (Homo sapiens): 158
31.6,COc1ccc2nccc(C3CN(C4CCN(Cc5cc6ccccc6[nH]5)CC4)C(=O)O3)c2n1 (centres undefined),–
25.1,COc1ccc2nccc(C3CN(C4CCN(Cc5cc6ccccc6[nH]5)CC4)C(=O)O3)c2c1 (centres undefined),–
20,COc1ccc2nccc([C@@H]3CN(C4CCN(Cc5cc6ccccc6[nH]5)CC4)C(=O)O3)c2c1,IC50 [2]: 1580 nM; Activity (Cavia porcellus): inactive; half-life [3]: 1 h; Selectivity ratio (Homo sapiens): 79; Activity [4]: inactive; Activity (Rattus norvegicus): inactive; CL (Liver microsomes [5]): 7 mL/min/g; clearance [6]: 38 mL/min/kg; CL (Liver microsomes [7]): 7 mL/min/g; Vd [8]: 2.4 L/kg; bioavailability [9]: 18%
